Experimental data reported in paper PMC8892522 (Proceedings of the National Academy of Sciences of the …, 2022).

Experiments:
[1] = target: T1, soluble epoxide hydrolase (sEH) (Homo sapiens, UniProt P34913); assay: cocrystal structure; type: binding
T1 sequence (P34913 230-555): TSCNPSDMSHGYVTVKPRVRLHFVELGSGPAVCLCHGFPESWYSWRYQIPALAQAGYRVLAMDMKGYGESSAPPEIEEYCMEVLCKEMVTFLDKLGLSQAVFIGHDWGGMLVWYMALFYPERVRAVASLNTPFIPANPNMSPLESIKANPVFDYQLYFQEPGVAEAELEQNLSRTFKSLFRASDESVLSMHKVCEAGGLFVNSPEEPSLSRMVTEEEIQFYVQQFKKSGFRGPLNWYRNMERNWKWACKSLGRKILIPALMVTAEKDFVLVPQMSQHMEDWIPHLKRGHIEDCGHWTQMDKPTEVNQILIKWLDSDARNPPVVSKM

[2] = target: T2, soluble epoxide hydrolase (sEH) (Mus musculus, UniProt P34914); assay: fluorescent substrate; type: biochemical
T2 sequence (P34914 1-554): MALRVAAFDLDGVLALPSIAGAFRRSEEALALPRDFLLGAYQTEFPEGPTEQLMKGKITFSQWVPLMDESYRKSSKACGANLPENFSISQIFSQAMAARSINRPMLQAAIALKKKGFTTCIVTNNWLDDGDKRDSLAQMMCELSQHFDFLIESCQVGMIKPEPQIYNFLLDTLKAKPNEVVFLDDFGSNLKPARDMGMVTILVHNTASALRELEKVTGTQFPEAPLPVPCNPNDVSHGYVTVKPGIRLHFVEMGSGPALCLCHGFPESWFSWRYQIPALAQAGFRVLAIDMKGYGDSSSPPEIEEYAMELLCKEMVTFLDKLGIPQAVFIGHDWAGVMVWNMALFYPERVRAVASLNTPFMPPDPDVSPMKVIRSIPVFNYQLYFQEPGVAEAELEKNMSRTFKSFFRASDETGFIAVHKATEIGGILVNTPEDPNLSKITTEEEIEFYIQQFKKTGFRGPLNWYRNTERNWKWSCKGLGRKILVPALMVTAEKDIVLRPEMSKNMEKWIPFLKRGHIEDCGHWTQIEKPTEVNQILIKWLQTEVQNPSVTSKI

Kd [1]: 1450 nM
IC50 [2]: 420 nM
SMILES: C=C(C)[C@H](CC=C(C)C)Cc1c(O)cc(OC)c2c1O[C@H](c1ccc(O)cc1O)CC2=O [kurarinone]
